Square brackets hold non-standard residues; d marks the D form. Peptide text beside a SMILES is read from it. Nle = CCCC[C@H](N)C(=O)O; βAla = NCCC(=O)O
What was measured:
Neuromedin-B receptor = Neuromedin-B receptor (Homo sapiens, UniProt P28336)
[1] = biological target: T1, Bombesin receptor subtype-3 (Homo sapiens, UniProt P32247)
T1 sequence (P32247 whole entry): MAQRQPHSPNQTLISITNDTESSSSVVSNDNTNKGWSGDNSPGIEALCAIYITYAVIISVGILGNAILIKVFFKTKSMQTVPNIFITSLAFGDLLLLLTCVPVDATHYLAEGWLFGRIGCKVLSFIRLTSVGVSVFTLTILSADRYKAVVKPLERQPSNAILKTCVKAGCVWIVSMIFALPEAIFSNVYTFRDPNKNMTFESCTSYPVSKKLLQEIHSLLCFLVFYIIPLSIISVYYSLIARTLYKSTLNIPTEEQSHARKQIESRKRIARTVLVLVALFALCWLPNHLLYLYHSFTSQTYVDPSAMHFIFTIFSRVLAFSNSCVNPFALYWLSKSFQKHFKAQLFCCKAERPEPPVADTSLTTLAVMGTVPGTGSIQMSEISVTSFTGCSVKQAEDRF

[2] = biological target: Gastrin-releasing peptide receptor (Homo sapiens) (UniProt P30550)
[3] = biological target: Gastrin-releasing peptide receptor (Homo sapiens) (UniProt P30550); remark: listed apart in the source

Sequence of Neuromedin-B receptor (P28336 whole entry): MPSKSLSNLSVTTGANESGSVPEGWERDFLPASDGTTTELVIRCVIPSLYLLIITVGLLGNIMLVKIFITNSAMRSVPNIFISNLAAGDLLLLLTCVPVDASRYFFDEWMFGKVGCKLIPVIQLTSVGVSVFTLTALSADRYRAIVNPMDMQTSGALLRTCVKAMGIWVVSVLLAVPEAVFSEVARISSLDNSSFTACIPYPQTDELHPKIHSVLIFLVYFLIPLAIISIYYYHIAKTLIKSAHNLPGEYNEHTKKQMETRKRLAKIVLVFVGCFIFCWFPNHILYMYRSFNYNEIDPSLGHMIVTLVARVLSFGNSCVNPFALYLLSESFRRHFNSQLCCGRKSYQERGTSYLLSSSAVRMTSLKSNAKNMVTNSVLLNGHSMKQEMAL
Sequence of Gastrin-releasing peptide receptor (Homo sapiens) (P30550 whole entry, looked up): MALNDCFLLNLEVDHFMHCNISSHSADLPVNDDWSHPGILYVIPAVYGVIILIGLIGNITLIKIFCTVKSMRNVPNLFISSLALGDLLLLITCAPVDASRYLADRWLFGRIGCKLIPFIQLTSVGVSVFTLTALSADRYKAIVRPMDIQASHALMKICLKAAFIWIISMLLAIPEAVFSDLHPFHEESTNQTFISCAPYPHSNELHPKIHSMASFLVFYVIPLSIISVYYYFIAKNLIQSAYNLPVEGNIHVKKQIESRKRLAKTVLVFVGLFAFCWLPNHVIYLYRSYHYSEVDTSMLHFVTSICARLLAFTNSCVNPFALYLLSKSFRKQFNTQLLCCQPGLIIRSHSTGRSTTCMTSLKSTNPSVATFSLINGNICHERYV

| Ki (Neuromedin-B receptor) [nM] | Ki [1] [nM] | Ki [2] [nM] | Ki [3] [nM] | SMILES |
| --- | --- | --- | --- | --- |
| 89 | 15.8 | 1.7 | – | CCCC[C@H](NC(=O)[C@H](Cc1ccccc1)NC(=O)[C@H](Cc1cnc[nH]1)NC(=O)[C@H](CNC(=O)[C@@H](NC(=O)[C@H](C)NC(=O)[C@H](Cc1c[nH]c2ccccc12)NC(=O)[C@H](CCC(N)=O)NC(=O)[C@H](N)Cc1ccc(O)cc1)C(C)C)NC(C)=O)C(N)=O [NSC_0] |
| 6920 | 24 | 229 | – | CCCC[C@H](NC(=O)[C@H](Cc1ccccc1)NC(=O)[C@H](Cc1cnc[nH]1)NC(=O)C[C@@H](NC(=O)[C@@H](NC(=O)[C@H](C)NC(=O)[C@H](Cc1c[nH]c2ccccc12)NC(=O)[C@H](CCC(N)=O)NC(=O)[C@H](N)Cc1ccc(O)cc1)C(C)C)c1ccccc1Cl)C(N)=O [NSC_0] |
| 43 | 2.3 | 1 | – | CCCC[C@H](NC(=O)[C@H](Cc1ccccc1)NC(=O)[C@H](Cc1cnc[nH]1)NC(=O)[C@@H](N)CNC(=O)[C@@H](NC(=O)[C@H](C)NC(=O)[C@H](Cc1c[nH]c2ccccc12)NC(=O)[C@H](CCC(N)=O)NC(=O)[C@H](N)Cc1ccc(O)cc1)C(C)C)C(N)=O [NSC_0] |
| 7200 | 8.2 | 1860 | – | CCCC[C@H](NC(=O)[C@H](Cc1ccccc1)NC(=O)[C@H](Cc1c[nH]cn1)NC(=O)C[C@@H](NC(=O)[C@@H](NC(=O)[C@H](C)NC(=O)[C@H](Cc1c[nH]c2ccccc12)NC(=O)[C@H](CCC(N)=O)NC(=O)[C@H](N)Cc1ccc(O)cc1)C(C)C)c1ccc(Cl)cc1)C(N)=O [NSC_0] |
| 831 | 15.8 | 110 | – | CCCC[C@H](NC(=O)[C@H](Cc1ccccc1)NC(=O)[C@H](Cc1cnc[nH]1)NC(=O)C[C@@H](NC(=O)[C@@H](NC(=O)[C@H](C)NC(=O)[C@H](Cc1c[nH]c2ccccc12)NC(=O)[C@H](CCC(N)=O)NC(=O)[C@H](N)Cc1ccc(O)cc1)C(C)C)c1cccc(Cl)c1)C(N)=O [NSC_0] |
| 2400 | 2.8 | 151 | – | CCCC[C@H](NC(=O)[C@H](Cc1ccccc1)NC(=O)[C@H](Cc1c[nH]cn1)NC(=O)C[C@@H](NC(=O)[C@@H](NC(=O)[C@H](C)NC(=O)[C@H](Cc1c[nH]c2ccccc12)NC(=O)[C@H](CCC(N)=O)NC(=O)[C@H](N)Cc1ccc(O)cc1)C(C)C)c1ccccc1)C(N)=O [NSC_0] |
| > 10000 | 107 | 2510 | – | CCCC[C@H](NC(=O)[C@H](Cc1ccccc1)NC(=O)[C@H](Cc1cnc[nH]1)NC(=O)C[C@H](NC(=O)[C@@H](NC(=O)[C@H](C)NC(=O)[C@H](Cc1c[nH]c2ccccc12)NC(=O)[C@H](CCC(N)=O)NC(=O)[C@H](N)Cc1ccc(O)cc1)C(C)C)c1cccc(Cl)c1)C(N)=O [NSC_0] |
| 5.9 | 0.82 | – | – | CCCC[C@H](NC(=O)[C@H](Cc1ccccc1)NC(=O)[C@H](Cc1cnc[nH]1)NC(=O)CCNC(=O)[C@@H](NC(=O)[C@H](C)NC(=O)[C@H](Cc1c[nH]c2ccccc12)NC(=O)[C@H](CCC(N)=O)NC(=O)[C@H](N)Cc1ccc(O)cc1)C(C)C)C(N)=O [NSC_0] (H-[dY]QWAV[βAla]HF[Nle]-NH2) |

The next lines start with the molecule.

| SMILES | Ki (Neuromedin-B receptor) [nM] | Ki [1] [nM] | Ki [2] [nM] | Ki [3] [nM] |
| --- | --- | --- | --- | --- |
| CSCC[C@H](NC(=O)[C@H](Cc1ccccc1)NC(=O)[C@H](Cc1cnc[nH]1)NC(=O)CNC(=O)[C@@H](NC(=O)[C@H](C)NC(=O)[C@H](Cc1c[nH]c2ccccc12)NC(=O)[C@H](CC(C)C)NC(=O)[C@H](CC(N)=O)NC(=O)CN)[C@@H](C)O)C(N)=O [NMB] | 0.55 | > 10000 | – | – |
| CCCC[C@H](NC(=O)[C@H](Cc1ccccc1)NC(=O)[C@H](Cc1cnc[nH]1)NC(=O)C[C@H](NC(=O)[C@@H](NC(=O)[C@H](C)NC(=O)[C@H](Cc1c[nH]c2ccccc12)NC(=O)[C@H](CCC(N)=O)NC(=O)[C@H](N)Cc1ccc(O)cc1)C(C)C)c1ccc(Cl)cc1)C(N)=O [NSC_0] | 1950 | 776 | 741 | – |
| CCCC[C@H](NC(=O)[C@H](Cc1ccccc1)NC(=O)[C@H](Cc1cnc[nH]1)NC(=O)C[C@H](NC(=O)[C@@H](NC(=O)[C@H](C)NC(=O)[C@H](Cc1c[nH]c2ccccc12)NC(=O)[C@H](CCC(N)=O)NC(=O)[C@H](N)Cc1ccc(O)cc1)C(C)C)C(=O)O)C(N)=O [NSC_0] | 427 | 490 | 396 | – |
| CCCC[C@H](NC(=O)[C@H](Cc1ccccc1)NC(=O)[C@H](Cc1cnc[nH]1)NC(=O)C[C@H](NC(=O)[C@@H](NC(=O)[C@H](C)NC(=O)[C@H](Cc1c[nH]c2ccccc12)NC(=O)[C@H](CCC(N)=O)NC(=O)[C@H](N)Cc1ccc(O)cc1)C(C)C)c1ccccc1Cl)C(N)=O [NSC_0] | 5890 | 85 | 398 | – |
| CC(C)[C@H](NC(=O)[C@H](C)NC(=O)[C@H](Cc1c[nH]c2ccccc12)NC(=O)[C@H](CCC(N)=O)NC(=O)[C@H](N)Cc1ccc(O)cc1)C(=O)NCCC(=O)N[C@@H](Cc1cnc[nH]1)C(=O)N[C@@H](Cc1ccccc1)C(=O)NC[C@H](N)C(N)=O [NSC_0] | > 10000 | 2400 | 85 | – |
| CCCC[C@H](NC(=O)[C@H](Cc1ccccc1)NC(=O)[C@H](Cc1cnc[nH]1)NC(=O)[C@H](CNC(=O)[C@@H](NC(=O)[C@H](C)NC(=O)[C@H](Cc1c[nH]c2ccccc12)NC(=O)[C@H](CCC(N)=O)NC(=O)[C@H](N)Cc1ccc(O)cc1)C(C)C)NC(=O)c1ccccc1)C(N)=O [NSC_0] | 55 | 12.3 | 3.1 | – |
| CCCC[C@H](NC(=O)[C@H](Cc1ccccc1)NC(=O)[C@H](Cc1cnc[nH]1)NC(=O)C[C@H](NC(=O)[C@@H](NC(=O)[C@H](C)NC(=O)[C@H](Cc1c[nH]c2ccccc12)NC(=O)[C@H](CCC(N)=O)NC(=O)[C@H](N)Cc1ccc(O)cc1)C(C)C)c1ccccc1)C(N)=O [CAS_0] | – | – | 110 | – |
| CCCC[C@H](NC(=O)[C@H](Cc1ccccc1)NC(=O)[C@H](Cc1cnc[nH]1)NC(=O)C[C@H](NC(=O)[C@@H](NC(=O)[C@H](C)NC(=O)[C@H](Cc1c[nH]c2ccccc12)NC(=O)[C@H](CCC(N)=O)NC(=O)[C@H](N)Cc1ccc(O)cc1)C(C)C)C(=O)NCc1ccccc1)C(N)=O [NSC_0] | 646 | 708 | – | 397 |

Source: BindingDB's records for doi:10.1124/jpet.104.066761 (National Institutes of Health, 2004)
